One substance from PMC3401907, “Cellular Uptakes, Biostabilities and Anti-miR-210 Activities of Chiral Arginine-PNAs in Leukaemic K562 Cells” (Chembiochem, 2012) can be followed below.

In experiment [1] the test system is RNA1 (target region of miR-210). Briefly: Melting temperature (Tm) of PNA:RNA duplexes, full-match RNA. The format is binding. Conditions: UV absorbance at 260 nm, strand concentration 5 μM. The method, then: Measurements of Tm values: The Tm values were determined with a Lambda Bio 20 spectrophotometer and a Peltier PTP6 temperature programmer. Thermal denaturation profiles were measured by monitoring the absorbance at 260 nm from 18 to 90 °C with a heating rate of 1 °C min^−1 and recording every 0.1 °C. […]

The test system of experiment [2] is RNA2 (mismatched RNA, G→U). Briefly: Melting temperature (Tm) of PNA:RNA duplexes, single-mismatch RNA. The format is binding. Conditions: UV absorbance at 260 nm, PBS buffer pH 7 with urea 5 M, strand concentration 5 μM. The source says:
Sequence selectivity is a very important issue in view of the use of PNAs in cellular systems, because partial hybridisation might occur with other unrelated miRNAs or, most importantly, with mRNA targets. We analysed the sequence selectivities of our PNAs with stricter models (DNA2 and RNA2) involving single base mismatches (G→T or G→U) located in the middle of the target sequences. In each case the sequence selectivity was confirmed by significant lowering of the melting temperature. The ranges of ΔTm due to the presence of these single mismatches were 8–21 °C for DNA, with the maximum drop in the case of PNA4 and the minimum observed in that of PNA6. For the latter it should be considered that the mismatch was facing the last chiral monomer, preventing the cooperative effect observed in the case of 2D-modifed highly constrained PNA.[22]
Measurements of Tm values: The Tm values were determined with a Lambda Bio 20 spectrophotometer and a Peltier PTP6 temperature programmer. Thermal denaturation profiles were measured by monitoring the absorbance at 260 nm from 18 to 90 °C with a heating rate of 1 °C min^−1 and recording every 0.1 °C. Measurement conditions: [PNA]=[DNA] or [RNA]=5 μM in PBS buffer [pH 7.0, NaCl (100 mM), NaH2PO4⋅H2O (10 mM), EDTA (0.1 mM)] with urea (5 M).

The subject of another experiment is γ-globin gene expression. Briefly: γ-globin gene expression by RT-qPCR. It is filed as cell-based, human. Conditions: mithramycin-treated (15 nM) K562 cells, PNA 2 μM single administration, 72 h, n=3. The method, then: The strong inhibition of miR-210 by PNA2 and PNA4 might thus result in appreciable reduction of γ-globin gene expression.
Figure 6 A) Effects of pept-1, PNA1, PNA2 and PNA4 molecules (each 2 μM) on γ-globin content in K562 cell cultures for 72 h with MTH (15 nM). Data are reported as arbitrary units relative to cells treated with pept-1 and MTH (average±SD, n=3, *: p<0.05, **: p<0.01). B), C) Effects of treatment (72 h) with pept-1, PNA1, PNA2 and PNA4 molecules on K562 cells induced to erythroid differentiation by MTH (15 nM): B) summary of three independent experiments, C) a representative experiment showing staining of the cells with benzidine.
The nucleotide sequences used for real-time qPCR analysis of γ-globin mRNAs were γ-globin forward primer (5′-TGGCAA GAAGGT GCTGAC TTC-3′), γ-globin reverse primer (5′-TCACTC AGCTGG GCAAAG G-3′) and γ-globin probe (5′-FAM-TGGGAG ATGCCA TAAAGC ACCTGG-TAMRA-3′).[25] The relative expression was calculated by the comparative cycle threshold method with endogenous control human 18S rRNA as reference genes.[25]
Background: Real-time PCR tracks product formation cycle by cycle.

Take “H-C5LArgC5LArgG5LArgC5LArgT5LArgG5LArgT5LArgC5LArgACACGCACAG-NH2 [PNA4, 5L Arg (C5) backbone-modified 18-mer PNA, model 2, stretch of consecutive modified monomers]”: the “Tm, RNA1 in water” value in experiment [1] (PBS buffer pH 7, no urea) is greater than 90 °C. The “Tm, RNA1 in urea (5 M)” value in experiment [1] (PBS buffer pH 7 with urea 5 M) came to 86 °C. In addition, in experiment [2], the “Tm, RNA2 in urea (5 M)” value was 75 °C. In the experiment on γ-globin gene expression, the “effect on γ-globin gene expression” value is on record as “inhibited γ-globin gene expression”.
